In experiment [1] the target is T1, SpCas9 (Streptococcus pyogenes serotype M1, UniProt Q99ZW2). The experiment in a line: cell-based.
The next experiment addresses FnCpf1 (Francisella tularensis subsp. novicida, UniProt A0Q7Q2). The class given is biochemical. The conditions noted are these: FIG. 22B.
Experiment [2] concerns the target T1, SpCas9. As to conditions: FIG. 16C.
In experiment [3] the target is T1, SpCas9. The experiment in a line: Broad spectrum CRISPR inhibition, SpCas9 (FIG. 22A). The class given is biochemical, S. pyogenes.
In experiment [4] the test system is CRISPR mediated gene tagging with HiBiT. Description: CRISPR mediated gene tagging with HiBiT in cells (bioluminescence). In kind it is cell-based. As to conditions: various concentrations; FIG. 17B. (The HiBiT peptide binds its large partner to form an active luciferase.)

pIC50: −log10 of the molar value. Entries after “also recorded” stand apart in the source; their conditions may differ.

A word on the pIC50: it is the IC50 on a negative log10 scale, so that one unit is a factor of ten. The low end stands for a large IC50, the high end for a small IC50.

Chain of FnCpf1 (A0Q7Q2 whole entry, looked up): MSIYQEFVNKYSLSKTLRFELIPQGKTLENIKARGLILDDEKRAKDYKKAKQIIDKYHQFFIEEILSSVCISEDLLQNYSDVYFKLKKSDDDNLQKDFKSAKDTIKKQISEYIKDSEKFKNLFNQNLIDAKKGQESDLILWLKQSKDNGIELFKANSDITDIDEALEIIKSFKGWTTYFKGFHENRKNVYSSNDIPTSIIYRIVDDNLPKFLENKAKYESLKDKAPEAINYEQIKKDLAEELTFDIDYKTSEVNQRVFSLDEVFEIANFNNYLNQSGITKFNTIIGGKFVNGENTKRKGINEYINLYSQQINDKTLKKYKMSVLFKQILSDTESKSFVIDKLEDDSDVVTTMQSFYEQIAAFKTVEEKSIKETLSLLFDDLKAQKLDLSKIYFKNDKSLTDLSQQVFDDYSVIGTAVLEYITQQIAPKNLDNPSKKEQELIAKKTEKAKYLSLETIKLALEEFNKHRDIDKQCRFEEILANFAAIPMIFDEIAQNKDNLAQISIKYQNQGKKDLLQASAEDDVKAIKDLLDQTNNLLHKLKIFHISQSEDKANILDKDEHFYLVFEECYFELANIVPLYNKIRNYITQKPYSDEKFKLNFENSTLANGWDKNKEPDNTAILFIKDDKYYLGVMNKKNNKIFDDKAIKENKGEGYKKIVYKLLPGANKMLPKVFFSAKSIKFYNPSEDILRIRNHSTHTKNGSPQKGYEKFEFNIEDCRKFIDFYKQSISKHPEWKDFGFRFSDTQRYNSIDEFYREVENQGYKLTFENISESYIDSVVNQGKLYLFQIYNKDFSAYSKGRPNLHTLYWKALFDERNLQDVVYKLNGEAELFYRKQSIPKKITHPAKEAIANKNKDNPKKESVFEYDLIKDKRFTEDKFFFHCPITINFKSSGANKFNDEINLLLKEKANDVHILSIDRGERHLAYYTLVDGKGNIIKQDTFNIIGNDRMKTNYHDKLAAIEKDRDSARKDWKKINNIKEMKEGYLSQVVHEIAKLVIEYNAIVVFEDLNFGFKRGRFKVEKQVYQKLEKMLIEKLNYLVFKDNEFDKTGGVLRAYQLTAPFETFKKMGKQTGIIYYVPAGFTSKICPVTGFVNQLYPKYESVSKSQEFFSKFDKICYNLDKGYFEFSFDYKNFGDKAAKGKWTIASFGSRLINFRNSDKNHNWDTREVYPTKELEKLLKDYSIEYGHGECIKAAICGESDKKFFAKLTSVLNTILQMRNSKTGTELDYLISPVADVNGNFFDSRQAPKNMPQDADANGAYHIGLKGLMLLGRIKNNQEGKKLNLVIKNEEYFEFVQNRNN
T1 sequence (Q99ZW2 whole entry): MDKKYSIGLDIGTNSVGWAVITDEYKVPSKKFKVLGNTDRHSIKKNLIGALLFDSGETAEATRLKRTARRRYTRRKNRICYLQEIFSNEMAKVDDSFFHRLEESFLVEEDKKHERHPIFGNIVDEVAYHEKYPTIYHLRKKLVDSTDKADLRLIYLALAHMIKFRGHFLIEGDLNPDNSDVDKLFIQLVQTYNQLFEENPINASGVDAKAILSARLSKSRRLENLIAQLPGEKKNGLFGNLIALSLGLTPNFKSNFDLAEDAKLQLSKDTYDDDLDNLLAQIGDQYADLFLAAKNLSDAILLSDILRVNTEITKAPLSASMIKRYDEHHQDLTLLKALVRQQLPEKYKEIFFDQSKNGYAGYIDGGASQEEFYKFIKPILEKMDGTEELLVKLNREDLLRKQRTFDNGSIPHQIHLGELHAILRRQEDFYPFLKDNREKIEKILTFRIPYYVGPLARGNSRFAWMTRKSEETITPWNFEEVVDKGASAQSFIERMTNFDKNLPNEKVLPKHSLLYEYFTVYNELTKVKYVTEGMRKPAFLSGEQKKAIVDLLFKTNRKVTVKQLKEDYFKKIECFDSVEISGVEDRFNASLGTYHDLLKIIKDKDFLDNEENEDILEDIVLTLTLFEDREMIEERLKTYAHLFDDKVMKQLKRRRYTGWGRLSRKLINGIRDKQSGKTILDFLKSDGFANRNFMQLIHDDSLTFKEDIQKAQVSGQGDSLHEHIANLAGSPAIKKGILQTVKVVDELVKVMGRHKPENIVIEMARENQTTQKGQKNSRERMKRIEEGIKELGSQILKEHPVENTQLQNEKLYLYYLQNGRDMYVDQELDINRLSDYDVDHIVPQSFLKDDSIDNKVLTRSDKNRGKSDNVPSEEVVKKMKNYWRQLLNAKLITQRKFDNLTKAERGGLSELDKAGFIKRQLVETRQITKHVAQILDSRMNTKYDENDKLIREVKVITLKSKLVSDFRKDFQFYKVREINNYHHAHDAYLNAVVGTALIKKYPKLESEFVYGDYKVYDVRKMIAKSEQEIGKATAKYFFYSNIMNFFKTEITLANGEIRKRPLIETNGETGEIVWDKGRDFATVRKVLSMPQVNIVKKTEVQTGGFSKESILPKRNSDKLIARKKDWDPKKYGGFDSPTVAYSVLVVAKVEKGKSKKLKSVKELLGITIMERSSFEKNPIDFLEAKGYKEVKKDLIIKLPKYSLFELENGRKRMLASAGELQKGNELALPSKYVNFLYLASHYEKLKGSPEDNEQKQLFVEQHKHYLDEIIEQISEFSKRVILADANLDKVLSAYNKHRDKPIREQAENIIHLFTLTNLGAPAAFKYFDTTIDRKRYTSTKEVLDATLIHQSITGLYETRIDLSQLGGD

With `N#C[C@@H]1N[C@H](CO)[C@H]1c1ccc(-c2ccccc2F)cc1` [BRD7608], the negative-log IC50 (pIC50) at SpCas9 [1] is 5.41. The “Inhibition of FnCpf1” value on FnCpf1 was “broad-spectrum CRISPR inhibitors; also recorded: similarly inhibit”. Moreover, at SpCas9 [2], the “eGFP fluorescence in the presence of eGFP-targeted SpCas9 activity” value is recorded as “eGFP fluorescence is maintained”. For the same compound, at SpCas9 [3], the “Inhibition of SpCas9” value is listed as “broad-spectrum CRISPR inhibitors; also recorded: similarly inhibit”. Further, the “Inhibition of CRISPR mediated gene tagging with HiBiT (bioluminescence)” value in experiment [4] is listed as “inhibited in a dose-dependent manner”.
On SpCas9 [1], `N#C[C@H]1N[C@@H](CO)[C@@H]1c1ccc(C#CC2CCCC2)cc1` [BRD9822] gave a pIC50 of 5.26. Besides, on FnCpf1, the “Inhibition of FnCpf1” value is on record as “broad-spectrum CRISPR inhibitors; also recorded: similarly inhibit”. Besides, on SpCas9 [2], the “eGFP fluorescence in the presence of eGFP-targeted SpCas9 activity” value is on record as “eGFP fluorescence is maintained”. Besides, the “Inhibition of SpCas9” value on SpCas9 [3] is listed as “broad-spectrum CRISPR inhibitors; also recorded: similarly inhibit”. In addition, the “Inhibition of CRISPR mediated gene tagging with HiBiT (bioluminescence)” value in experiment [4] is reported as “inhibited in a dose-dependent manner”.

The values above are taken from patent publication US12460244B2, “Inhibitors of RNA-guided nuclease activity and uses thereof” (THE BROAD INSTITUTE, INC., priority 2018, dated 2025).
